The target of data set [1] is human vasopressin V2 receptors (Homo sapiens, UniProt P30518). The data set is described as follows: affinity for vasopressin V2 receptors (method of Birnbaumer et al.). The class given is binding. The conditions noted are these: read-out: IC50 with respect to the V2 receptors. The source says:
(§1) The affinity of the compounds according to the invention for human vasopressin V1a receptors (method described by M. Thibonnier et al. in J. Biol. Chem., 1994, 269, 3304-3310), V1b receptors (method described by T. Sugimoto et al. in J. Biol. Chem., 1994, 269, 27088-27092) and V2 receptors (method described by M. Birnbaumer et al. in Nature (Lond.), 1992, 357, 333-335) has also been studied. The compounds studied have little or no affinity for the V1a, V1b and V2 receptors.

Data set [2] has as its target T1, human uterine oxytocin receptors (Homo sapiens, UniProt P30559).
T1 construct: host or cells: membrane preparation
T1 sequence (P30559 1-389): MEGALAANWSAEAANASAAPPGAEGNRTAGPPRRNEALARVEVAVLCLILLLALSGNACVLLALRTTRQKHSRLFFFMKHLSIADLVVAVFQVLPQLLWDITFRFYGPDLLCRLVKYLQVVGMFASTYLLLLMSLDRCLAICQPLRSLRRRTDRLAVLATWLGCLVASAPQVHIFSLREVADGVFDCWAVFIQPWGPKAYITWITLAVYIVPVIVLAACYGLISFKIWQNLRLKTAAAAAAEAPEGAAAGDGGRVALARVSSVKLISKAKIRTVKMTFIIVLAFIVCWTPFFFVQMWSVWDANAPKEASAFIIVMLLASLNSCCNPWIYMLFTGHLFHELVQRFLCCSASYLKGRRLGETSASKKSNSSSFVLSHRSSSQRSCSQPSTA
The data set is described as follows: in vitro binding test: displacement of a radioiodinated oxytocin analogue in a membrane preparation. The method, then: The compounds according to the invention have formed the subject of biochemical and pharmacological studies. The affinity of the compounds according to the invention for oxytocin receptors was determined in an in vitro binding test using the method described by J. Elands et al. in Eur. Pharmacol., 1987, 147, 192-207. This method consists in studying in vitro the displacement of a radioiodinated oxytocin analogue at the oxytocin receptors in a membrane preparation of human uterine oxytocin receptors. The IC50 values (concentration which inhibits 50% of the binding of the radioiodinated oxytocin analogue to its receptors) are low and vary from 10^−10 to 10^−6 M in the latter test.

The target in data set [3] is T2, human vasopressin V1b receptors (Homo sapiens, UniProt P47901).
T2 sequence (P47901 1-424): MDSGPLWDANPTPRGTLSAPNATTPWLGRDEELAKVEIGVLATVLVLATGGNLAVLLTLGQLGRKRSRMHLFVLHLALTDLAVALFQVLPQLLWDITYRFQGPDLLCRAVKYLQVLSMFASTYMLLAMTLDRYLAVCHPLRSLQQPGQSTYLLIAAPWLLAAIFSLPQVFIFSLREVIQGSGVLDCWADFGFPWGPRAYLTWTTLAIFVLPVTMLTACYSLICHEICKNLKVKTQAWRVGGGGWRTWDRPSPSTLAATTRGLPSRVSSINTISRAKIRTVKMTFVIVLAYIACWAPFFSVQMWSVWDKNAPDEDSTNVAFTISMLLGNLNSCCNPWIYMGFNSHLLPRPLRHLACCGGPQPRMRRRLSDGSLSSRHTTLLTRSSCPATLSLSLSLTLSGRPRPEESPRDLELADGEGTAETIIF
The data set is described as follows: affinity for vasopressin V1b receptors (method of Sugimoto et al.). The class given is binding. The conditions noted are these: read-out: IC50 with respect to the V1b receptors.
Excerpt: as §1

For data set [4], the target named is human vasopressin V1a receptors (Homo sapiens, UniProt P37288). The data set is described as follows: affinity for vasopressin V1a receptors (method of Thibonnier et al.). The class given is binding. The conditions noted are these: read-out: IC50 with respect to the V1a receptors.
Excerpt: as §1

The target of data set [5] is T3, cells expressing human oxytocin receptors (Homo sapiens, UniProt P30559).
T3 sequence (P30559 1-389): T1 sequence (P30559 1-389)
The data set is described as follows: measurement of intracellular calcium, agonist or antagonist nature. The class given is cell-based. The method, then:
The agonist or antagonist nature of the compounds is determined in vitro in a test for the measurement of intracellular calcium with respect to cells expressing human oxytocin receptors according to the general technique described in Am. J. Physiol., 268 (Heart Circ. Physiol., 37), 1995, H404-H410.

human vasopressin V1a receptors, sequence (P37288 whole entry): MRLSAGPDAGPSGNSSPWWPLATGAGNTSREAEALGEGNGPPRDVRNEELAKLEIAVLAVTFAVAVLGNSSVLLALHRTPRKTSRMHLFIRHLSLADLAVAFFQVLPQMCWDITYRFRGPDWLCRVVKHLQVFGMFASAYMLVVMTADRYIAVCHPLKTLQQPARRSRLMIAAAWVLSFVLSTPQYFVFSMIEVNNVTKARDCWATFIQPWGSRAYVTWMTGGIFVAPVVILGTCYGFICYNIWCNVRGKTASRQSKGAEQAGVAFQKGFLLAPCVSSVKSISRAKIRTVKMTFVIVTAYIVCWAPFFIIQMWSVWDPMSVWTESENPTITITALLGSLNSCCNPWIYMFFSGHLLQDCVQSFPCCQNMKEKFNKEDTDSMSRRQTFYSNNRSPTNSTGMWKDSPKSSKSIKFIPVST
human vasopressin V2 receptors, sequence (P30518 whole entry): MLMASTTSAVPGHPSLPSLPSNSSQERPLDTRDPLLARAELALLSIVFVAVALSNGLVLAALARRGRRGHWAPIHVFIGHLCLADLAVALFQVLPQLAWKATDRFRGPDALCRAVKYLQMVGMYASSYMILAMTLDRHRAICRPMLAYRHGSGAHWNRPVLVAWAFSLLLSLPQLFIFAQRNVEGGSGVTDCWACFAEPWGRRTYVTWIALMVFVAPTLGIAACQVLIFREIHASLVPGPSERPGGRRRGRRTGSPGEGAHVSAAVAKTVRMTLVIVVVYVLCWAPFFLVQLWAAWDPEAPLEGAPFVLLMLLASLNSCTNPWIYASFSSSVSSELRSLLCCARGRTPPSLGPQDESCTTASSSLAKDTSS

For `COc1ccc(CN2C(=O)C(C)(c3cc(C(=O)NC4CCCCC4)ccc3Cl)c3cc(Cl)ccc32)c(OC)c1` (stereo not shown), the melting point turned out to be 129.8 °C.

For the compound `COCC1CCCN1C(=O)c1ccc(Cl)c(C2(C)C(=O)N(Cc3ccc(OC)cc3OC)c3ccc(Cl)cc32)c1` (stereo not shown), the melting point turned out to be 98 °C.

Regarding `COc1ccc(CN2C(=O)C(C)(c3cc(C(=O)N(C)C)ccc3Cl)c3cc(Cl)ccc32)c(OC)c1` (stereo not shown) (hydrate or solvate), the melting point worked out at 184 °C.

The compound `COCC(=O)Nc1ccc(Cl)c(C2(C)C(=O)N(Cc3ccc(OC)cc3OC)c3ccc(Cl)cc32)c1` (stereo not shown) returned a melting point of 191 °C.

`COc1ccc(CN2C(=O)C(C)(c3cc(N(C)S(=O)(=O)c4ccccc4)ccc3Cl)c3cc(Cl)ccc32)c(OC)c1` (stereo not shown) (hydrate or solvate) returned a melting point of 73 °C.

`CCN(C)C(=O)c1ccc(Cl)c(C2(C)C(=O)N(Cc3ccc(OC)cc3OC)c3ccc(Cl)cc32)c1` (stereo not shown) gave a melting point of 166 °C.

With `CCN(CCc1ccccc1)C(=O)c1ccc(Cl)c(C2(C)C(=O)N(Cc3ccc(OC)cc3OC)c3ccc(Cl)cc32)c1` (stereo not shown), the melting point amounted to 111.7 °C.

The compound `CCN(CCOC)C(=O)c1ccc(Cl)c(C2(C)C(=O)N(Cc3ccc(OC)cc3OC)c3ccc(Cl)cc32)c1` (stereo not shown) showed a melting point of 86.3 °C.

Regarding `COc1ccc(CN2C(=O)C(C)(c3ccccc3Cl)c3cc(Cl)ccc32)c(OC)c1` (racemic) [Example 1, 5-Chloro-3-(2-chlorophenyl)-1-(2,4-dimethoxybenzyl)-3-methylindolin-2-one], the half-maximal inhibitory concentration (IC50) in data set [1] was over 1000 nM; in data set [2] it was under 50 nM; in data set [3] it was over 1000 nM; in data set [4], over 1000 nM.

Take `COc1ccc(CN2C(=O)C(C)(c3ccccc3Cl)c3cc(Cl)ccc32)c(OC)c1` (single isomer, unassigned) [dextrorotatory enantiomer of Example 1, 5-Chloro-3-(2-chlorophenyl)-1-(2,4-dimethoxybenzyl)-3-methylindolin-2-one]: the “agonist or antagonist nature” value in data set [5] was “antagonist”. In data set [5] (read-out: IC50 as antagonist), the IC50 came to 3.2 ± 1.9 nM.

The compound `COc1ccc(CN2C(=O)C(C)(c3cc(CN4CCOCC4)ccc3Cl)c3cc(Cl)ccc32)c(OC)c1` (stereo not shown) had a melting point of 145 °C.

Take `COCCOCc1ccc(Cl)c(C2(C)C(=O)N(Cc3ccc(OC)cc3OC)c3ccc(Cl)cc32)c1` (stereo not shown): the melting point was 114 °C.

Consider `COC(=O)C1CCCCN1C(=O)c1ccc(Cl)c(C2(C)C(=O)N(Cc3ccc(OC)cc3OC)c3ccc(Cl)cc32)c1` (stereo not shown), for which the melting point was determined as 116 °C.

Compound `CCNC(=O)c1ccc(Cl)c(C2(C)C(=O)N(Cc3ccc(OC)cc3OC)c3ccc(Cl)cc32)c1` (stereo not shown) (hydrate or solvate) yielded a melting point of 248 °C.

The compound `CCN(C(=O)c1ccc(Cl)c(C2(C)C(=O)N(Cc3ccc(OC)cc3OC)c3ccc(Cl)cc32)c1)C(C)C` (stereo not shown) displayed a melting point of 102.8 °C.

The values above are taken from US6673790B1, “Indolin-2-one derivatives, preparation and their use as ocytocin receptor ligands” (Sanofi-Synthelabo, priority 2002, dated 2004).
